Test results: paper PMC4578755, “Development of novel cellular histone-binding and chromatin-displacement assays for bromodomain drug discovery” (Epigenetics & Chromatin, 2015)

Key:
[1] = target: T1, endogenous TRIM24 in OV90 cells (Homo sapiens, UniProt O15164); assay: In situ cell extraction with IF in OV90 cells; type: cell-based
T1 construct: non-transfected OV90 cells looking at endogenous TRIM24; endogenous in cells; host or cells: OV90
T1 sequence (O15164 1-1050): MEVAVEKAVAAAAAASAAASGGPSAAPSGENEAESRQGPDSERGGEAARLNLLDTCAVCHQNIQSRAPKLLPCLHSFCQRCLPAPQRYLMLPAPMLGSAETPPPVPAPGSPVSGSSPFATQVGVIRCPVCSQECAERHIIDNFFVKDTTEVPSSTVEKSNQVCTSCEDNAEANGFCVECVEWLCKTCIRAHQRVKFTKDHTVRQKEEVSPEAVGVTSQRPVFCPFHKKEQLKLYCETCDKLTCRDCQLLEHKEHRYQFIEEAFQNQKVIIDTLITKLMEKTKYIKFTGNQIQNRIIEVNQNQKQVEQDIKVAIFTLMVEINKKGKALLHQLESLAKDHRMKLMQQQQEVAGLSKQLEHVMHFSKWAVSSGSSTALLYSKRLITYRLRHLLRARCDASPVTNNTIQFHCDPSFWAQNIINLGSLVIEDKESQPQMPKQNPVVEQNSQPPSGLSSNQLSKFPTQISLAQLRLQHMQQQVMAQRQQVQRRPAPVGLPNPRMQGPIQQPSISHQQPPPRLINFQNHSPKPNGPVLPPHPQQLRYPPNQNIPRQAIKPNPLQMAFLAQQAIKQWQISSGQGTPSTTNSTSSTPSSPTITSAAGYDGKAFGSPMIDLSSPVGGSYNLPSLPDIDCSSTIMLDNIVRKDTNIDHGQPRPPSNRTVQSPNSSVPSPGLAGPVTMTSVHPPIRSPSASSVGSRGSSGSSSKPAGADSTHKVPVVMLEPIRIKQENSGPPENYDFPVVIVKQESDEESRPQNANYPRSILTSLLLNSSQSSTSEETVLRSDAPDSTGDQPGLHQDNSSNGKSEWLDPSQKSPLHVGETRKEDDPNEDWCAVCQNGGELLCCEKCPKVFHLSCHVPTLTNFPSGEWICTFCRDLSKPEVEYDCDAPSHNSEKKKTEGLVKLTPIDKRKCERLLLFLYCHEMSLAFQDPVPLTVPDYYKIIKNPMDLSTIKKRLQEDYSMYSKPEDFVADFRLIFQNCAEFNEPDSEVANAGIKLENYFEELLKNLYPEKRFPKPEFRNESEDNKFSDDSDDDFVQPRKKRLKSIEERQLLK
Experimental: OV90 or HeLa cells (20,000 cells/100 µL) were seeded into 96-well plates (Corning Costar #3603) using RPMI or DMEM medium, respectively, supplemented with 10 % FBS and grown overnight. Test agents were serially diluted in DMSO (with or without SAHA) to generate 10X master compound plates. From here, 11 µL was transferred into each well containing 100 µL of growth media followed by shaking on a rotation table (15 min, 300 rpm at RT) and incubation at 37 °C for 2 h. Plates were washed once with PBS (150 µL/well) and then with cold, freshly prepared Cytoskeleton (CSK) Buffer (10 mM PIPES, 300 mM Sucrose, 100 mM NaCl, 3 mM MgCl2; pH = 6.8). Immediately thereafter, soluble, non-chromatin-bound proteins were extracted by addition of cold CSK Buffer supplemented with 0.5 % Triton X-100 (150 µL per well) for 10 min at 4 °C followed by 4 % paraformaldehyde fixation (10 min at RT) (Additional file 1: Table S3).
(§1) Standard IF procedures were used. Briefly, cells were permeabilized (0.5 % Triton X-100 in PBS) for 15 min and incubated with blocking solution (DAKO #X0909) for 30 min. The following primary antibodies were used: goat anti-V5 (Bethyl #A190-119A) 1:200; mouse anti-FLAG (Sigma #F1804) 1:200; rabbit anti-BRD4 (Abcam #ab128874) 1:200; rabbit anti-TRIM24 (Proteintech #14208-1-AP) 1:400; rabbit anti-K3K23Ac (Cell Signaling #8848) 1:200, and mouse anti-histone H3 (Active Motif #39763) 1:4000. Alexa Fluor-conjugated secondary antibodies were from Invitrogen and Hoechst 33342 (Invitrogen, #H3570) was used for nuclei counterstaining (10 µg/ml). For each Alexa fluorochrome, images (4–10 fields per well; 20X magnifications) were acquired using the Operetta High-Content Screening System (PerkinElmer). Image analysis was performed in Harmony software (PerkinElmer) by selecting nuclei and cytoplasm in Hoechst channel. Gating for single cells of flat morphology was done based on nuclei area, roundness and intensity of Hoechst in the nucleus and in the cytoplasm. In every gated cell, the mean signal intensity value for each fluorochrome was calculated separately in nucleus and cytoplasm. The specific nuclear signal was estimated subtracting mean cytoplasmic value from nuclear; and average value was calculated using at least 1000 cells in each well.
Supplemental Table S3 (Zhan et al.)
Table S3. In Situ Cell Extraction Procedure (IF)
Step Parameter Solution Volume Time Temp (°C)
Seed cells DMEM supplemented with 10 % FBS 37°C,
2 SAHA treatment SAHA (50 µM) in DMEM with 10% FBS 12 µL 2h 37°C,
3 Prepare Master 100X final concentration in assay 30 µL […]
Image analysis: The analysis was performed in Harmony (PerkinElmer) software by selecting nuclei and cytoplasm in Hoechst 33342 channel . […] For each channel “mean nuclear signal“ was calculated as “mean […]

[2] = tested on: histone H3K23Ac mark in HeLa cells; assay: H3K23 acetylation in HeLa cells (Western blot, anti-H3K23Ac immunostaining); type: cell-based; conditions: 2 h
Experimental: as §1

Histone H3 protein levels ([1]; OV90, 10 µM, 2 h) | Chromatin binding of endogenous TRIM24 ([1]; OV90 cells) | Time to displacement of endogenous TRIM24 from chromatin ([1]; non-transfected OV90 cells) | Mean IF nuclei intensity of endogenous TRIM24 ([1]; OV90, SAHA treatment) | Structure (SMILES) | H3K23 acetylation (anti-H3K23Ac immunostaining) ([2]; 3 µM, HeLa control and TRIM24-PB cells) | Cellular histone H3K23Ac mark ([2]; HDAC inhibitor treatment, 2 µM, Western blot)
unchanged | readily reduced | ≤ 5 min |  | Cc1nc(S(=O)(=O)Nc2cc3c(cc2Oc2cccc(OCC(C)C)c2)n(C)c(=O)n3C)cn1C [IACS-6558, N-{1,3-dimethyl-6-[3-(2-methylpropoxy)phenoxy]-2-oxo-2,3-dihydro-1H-1,3-benzodiazol-5-yl}-1,2-dimethyl-1H-imidazole-4-sulfonamide] |  | 
 |  |  | did not change | O=C(CCCCCCC(=O)Nc1ccccc1)NO [SAHA, Suberoylanilide Hydroxamic Acid] | maximal H3K23 acetylation | hyperacetylated
